# In patent publication US12570642B2, “GLP-IR modulating compounds” (Gilead Sciences, Inc., priority 2021, dated 2026):
# Target: GLP-1R (Homo sapiens, UniProt P43220)
# Assay: GLP-1R Activation - cAMP Assay
# Format: cell-based
# Settings: cAMP increase in CHO cells stably expressing GLP-1R; each compound run on one of the two cAMP assays (Assay 1 or Assay 2, not specified)
# How it was run: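 cAMP rise read by HTRF after 30 min agonist exposure (10-point titration, 37 °C) in HBSS/20 mM Hepes/0.1% BSA, following 1 h pre-incubation. Cells: stable GLP-1R CHO line, 1,000/well, seeded overnight. Sigmoidal fit of response vs log concentration gives EC50.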
# Chain of GLP-1R (P43220 24-463): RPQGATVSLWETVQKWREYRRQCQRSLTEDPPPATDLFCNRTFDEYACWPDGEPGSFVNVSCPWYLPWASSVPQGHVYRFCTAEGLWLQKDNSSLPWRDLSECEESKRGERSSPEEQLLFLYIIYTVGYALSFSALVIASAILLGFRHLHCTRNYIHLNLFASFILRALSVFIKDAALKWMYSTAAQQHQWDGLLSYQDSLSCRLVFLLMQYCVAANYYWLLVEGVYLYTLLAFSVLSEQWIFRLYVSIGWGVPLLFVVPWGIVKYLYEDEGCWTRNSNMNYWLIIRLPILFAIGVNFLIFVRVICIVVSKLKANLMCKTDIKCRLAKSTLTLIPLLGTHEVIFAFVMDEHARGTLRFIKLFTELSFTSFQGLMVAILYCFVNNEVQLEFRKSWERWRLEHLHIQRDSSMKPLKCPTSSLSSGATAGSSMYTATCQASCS
row,Structure (SMILES),EC50 [nM]
1,"COCCn1c(Cc2cc(F)c(-c3cccc(OCc4ccc(-c5ccnn5C)nc4)n3)cc2F)nc2ccc(C(=O)O)cc21 [Example 110, 2-(2,5-difluoro-4-(6-((6-(1-methyl-1H-pyrazol-5-yl)pyridin-3-yl)methoxy)pyridin-2-yl)benzyl)-1-(2-methoxyethyl)-1H-benzo[d]imidazole-6-carboxylic Acid]",4.93
2,C#Cc1ccc(COc2cccc(-c3cc(F)c(Cc4nc5ccc(C(=O)O)cc5n4CCOC)cc3F)n2)c(F)c1 [Example 111],1.46
3,COCCn1c(Cc2cc(F)c(-c3cccc(OCc4ccc(-c5ncnn5C)cc4F)n3)cc2F)nc2ccc(C(=O)O)cc21 [Example 112],23
4,COCCn1c(Cc2cc(F)c(-c3cccc(OCc4ccc(-c5cncn5C)cc4F)n3)cc2F)nc2ccc(C(=O)O)cc21 [Example 113],11
5,COCCn1c(Cc2cc(F)c(-c3cccc(OCc4ccc(-c5cnn(CC(F)F)c5)cc4F)n3)cc2F)nc2ccc(C(=O)O)cc21 [Example 114],5.99
6,"CC1(C)COC[C@H]1n1c(Cc2cc(F)c(-c3ccc(F)c(OCc4ccc(C#N)cc4F)n3)cc2F)nc2c(F)cc(C(=O)O)cc21 [Example 116, 2-[[4-[6-[(4-cyano-2-fluoro-phenyl)methoxy]-5-fluoro-2-pyridyl]-2,5-difluoro-phenyl]methyl]-3-[(3S)-4,4-dimethyltetrahydrofuran-3-yl]-7-fluorobenzimidazole-5-carboxylic Acid]",0.005
7,"CC1(C)COC[C@H]1n1c(Cc2cc(F)c(-c3cccc(OCc4cnc(-n5ccnn5)cc4Cl)n3)cc2F)nc2ccc(C(=O)O)cc21 [Example 118, (S)-2-(4-(6-((4-chloro-6-(1H-1,2,3-triazol-1-yl)pyridin-3-yl)methoxy)pyridin-2-yl)-2,5-difluorobenzyl)-1-(4,4-dimethyltetrahydrofuran-3-yl)-1H-benzo[d]imidazole-6-carboxylic Acid]",0.053
8,"CC1(C)COC[C@H]1n1c(Cc2c(F)cc(-c3cccc(OCc4ccc(C#N)cc4F)n3)c(F)c2F)nc2ccc(C(=O)O)cc21 [Example 120, (S)-2-(4-(6-((4-cyano-2-fluorobenzyl)oxy)pyridin-2-yl)-2,3,6-trifluorobenzyl)-1-(4,4-dimethyltetrahydrofuran-3-yl)-benzimidazole-6-carboxylic Acid]",0.101
9,"CC1(C)COC[C@H]1n1c(Cc2cc(F)c(-c3ccnc(OCc4ccc(Cl)cc4F)n3)cc2F)nc2ccc(C(=O)O)cc21 [Example 121, (S)-2-(4-(2-((4-chloro-2-fluorobenzyl)oxy)pyrimidin-4-yl)-2,5-difluorobenzyl)-1-(4,4-dimethyltetrahydrofuran-3-yl)-1H-benzo[d]imidazole-6-carboxylic Acid]",0.083
10,"CC1(C)COCC1n1c(Cc2c(F)cc(-c3cccc(OCc4ccc(C#N)cc4F)n3)c(F)c2F)nc2c(F)cc(C(=O)O)cc21 (stereo not drawn) [Example 122, 2-(4-(6-((4-cyano-2-fluorobenzyl)oxy)pyridin-2-yl)-2,3,6-trifluorobenzyl)-1-(4,4-dimethyltetrahydrofuran-3-yl)-4-fluoro-1H-benzo[d]imidazole-6-carboxylic Acid]",0.031
11,CC1(C)COC[C@@H]1n1c(Cc2c(F)cc(-c3cccc(OCc4ccc(C#N)cc4F)n3)c(F)c2F)nc2c(F)cc(C(=O)O)cc21 [Example 123],0.528
12,CC1(C)COC[C@H]1n1c(Cc2c(F)cc(-c3cccc(OCc4ccc(C#N)cc4F)n3)c(F)c2F)nc2c(F)cc(C(=O)O)cc21 [Example 124],0.027
13,"COCCn1c(Cc2cc(F)c(-c3ccc(F)c(OCc4ccc(C#N)cc4F)n3)cc2F)nc2ccc(C(=O)O)c(F)c21 [Example 125, 2-(4-(6-((4-cyano-2-fluorobenzyl)oxy)-5-fluoropyridin-2-yl)-2,5-difluorobenzyl)-7-fluoro-1-(2-methoxyethyl)-1H-benzo[d]imidazole-6-carboxylic Acid]",0.112
14,"CC1(C)COC[C@H]1n1c(Cc2cc(F)c(-c3cccc(OCc4ccc(Cl)cc4F)n3)cc2F)nc2c(Cl)cc(C(=O)O)cc21 [Example 126, (S)-4-chloro-2-(4-(6-((4-chloro-2-fluorobenzyl)oxy)pyridin-2-yl)-2,5-difluorobenzyl)-1-(4,4-dimethyltetrahydrofuran-3-yl)-1H-benzo[d]imidazole-6-carboxylic Acid]",0.332

# Second part, the compound after the results:
row,EC50 [nM],Structure (SMILES)
1,0.353,"CC1(C)COC[C@H]1n1c(Cc2cc(F)c(-c3ccc(F)c(OCc4ccc(C#N)cc4F)n3)cc2F)nc2c(Cl)cc(C(=O)O)cc21 [Example 127, (S)-4-chloro-2-(4-(6-((4-cyano-2-fluorobenzyl)oxy)-5-fluoropyridin-2-yl)-2,5-difluorobenzyl)-1-(4,4-dimethyltetrahydrofuran-3-yl)-1H-benzo[d]imidazole-6-carboxylic Acid]"
2,0.271,"CC1(C)COC[C@H]1n1c(Cc2cc(F)c(-c3ccnc(OCc4ccc(C#N)cc4F)n3)cc2F)nc2c(Cl)cc(C(=O)O)cc21 [Example 129, (S)-4-chloro-2-(4-(2-((4-cyano-2-fluorobenzyl)oxy)pyrimidin-4-yl)-2,5-difluorobenzyl)-1-(4,4-dimethyltetrahydrofuran-3-yl)-1H-benzo[d]imidazole-6-carboxylic Acid]"
3,0.038,"CC1(C)COC[C@H]1n1c(Cc2cc(F)c(-c3cccc(OCc4ccc(C#N)cc4F)n3)cc2F)nc2c(Cl)cc(C(=O)O)cc21 [Example 130, (S)-4-chloro-2-(4-(6-((4-cyano-2-fluorobenzyl)oxy)pyridin-2-yl)-2,5-difluorobenzyl)-1-(4,4-dimethyltetrahydrofuran-3-yl)-1H-benzo[d]imidazole-6-carboxylic Acid]"
4,0.145,"CC1(C)COC[C@H]1n1c(Cn2cc(F)c(-c3ccc(F)c(OCc4ccc(Cl)cc4F)n3)cc2=O)nc2c(F)cc(C(=O)O)cc21 [Example 131, (S)-2-((6-((4-chloro-2-fluorobenzyl)oxy)-5,5′-difluoro-2′-oxo-[2,4′-bipyridin]-1′(2′H)-yl)methyl)-1-(4,4-dimethyltetrahydrofuran-3-yl)-4-fluoro-1H-benzo[d]imidazole-6-carboxylic Acid]"
5,0.043,"CC1(C)COC[C@H]1n1c(Cn2cc(F)c(-c3ccc(F)c(OCc4ccc(C#N)cc4F)n3)cc2=O)nc2c(F)cc(C(=O)O)cc21 [Example 132, (S)-2-((6-((4-cyano-2-fluorobenzyl)oxy)-5,5′-difluoro-2′-oxo-[2,4′-bipyridin]-1′(2′H)-yl)methyl)-1-(4,4-dimethyltetrahydrofuran-3-yl)-4-fluoro-1H-benzo[d]imidazole-6-carboxylic Acid]"
6,0.021,"Cc1cc(Cc2nc3c(F)cc(C(=O)O)cc3n2[C@@H]2COCC2(C)C)c(Cl)cc1-c1cccc(OCc2ccc(C#N)cc2)n1 [Example 133, (S)-2-(2-chloro-4-(6-((4-cyanobenzyl)oxy)pyridin-2-yl)-5-methylbenzyl)-1-(4,4-dimethyltetrahydrofuran-3-yl)-4-fluoro-1H-benzo[d]imidazole-6-carboxylic Acid]"
7,0.077,"Cc1cc(Cc2nc3ccc(C(=O)O)cc3n2[C@@H]2COCC2(C)C)c(Cl)cc1-c1cccc(OCc2ccc(C#N)cc2)n1 [Example 134, (S)-2-(2-chloro-4-(6-((4-cyanobenzyl)oxy)pyridin-2-yl)-5-methylbenzyl)-1-(4,4-dimethyltetrahydrofuran-3-yl)-1H-benzo[d]imidazole-6-carboxylic Acid]"
